Measurements taken from US11833147B2, “Procaspase 3 activation by combination therapy” (The Board of Trustees of the University of Illinois, priority 2012, dated 2023).

Legend:
U-937 (lymphoma) cells = experiment: U-937 (lymphoma) cell death, PAC-1 with second agent; format: cell-based; conditions: 0-15 μM PAC-1, 0 nM second agent, 8 hours, FIG. 4
Procedure: FIG. 2. Effects of PAC-1 with Etoposide on U-937 (lymphoma) cell death. Dashed lines represent the level of purely additive effects.
FIG. 3. Effects of PAC-1 with Velcade® (bortezomib) on U-937 (lymphoma) cell death. […] Cell death was measured after 6 hours in bortezomib.
FIG. 4. Effects of PAC-1 with staurosporine on U-937 (lymphoma) cell death. […] Cell death was measured after 8 hours in staurosporine.

[1] = in mammals; cited from earlier work
[2] = more active than irinotecan itself; cited from earlier work

SMILES	cell death with PAC-1 alone (U-937 (lymphoma) cells)	safety [1]	activity relative to irinotecan [2]
C=CCc1cccc(/C=N/NC(=O)CN2CCN(Cc3ccccc3)CC2)c1O [PAC-1, 2-(4-benzylpiperazin-1-yl)-N-[(2-hydroxy-3-prop-2-enyl-phenyl)methylideneamino]acetamide]	Little or no cell death	safe	–
CCc1c2c(nc3ccc(O)cc13)-c1cc3c(c(=O)n1C2)COC(=O)[C@]3(O)CC [SN-38]	–	–	200 times
